Source: US8729269B2, “Substituted piperidino phenyloxazolidinones having antimicrobial activity with improved in vivo efficacy” (Wockhardt Limited, priority 2003, dated 2014)
≈ marks a conversion by molar mass, not a printed value.

Columns and labels:
[1] = tested on: Methicilin resistant Staphylococcus epidermidis 118 (MRSE 118); experiment: Minimum Inhibitory Concentration (MIC) determination, agar dilution; format: cell-based; details: Mueller Hinton agar, 24 hrs at 35° C.
Experimental: (§1) Overnight grown cultures of Methicilin resistant Staphylococcus aureus 32 (MRSA 32), Methicilin resistant Staphylococcus epidermidis 118 (MRSE 118), Vancomycin resistant enterococci 303 (VRE 303) in Tryptic Soya broth were diluted in Mueller Hinton Broth to give optical density matching with MacFarland tube 0.5 standard. Cultures were further diluted 1:10 in Mueller Hinton broth. Using Denley's multipoint inoculator, 10^4 cells were deposited on Mueller Hinton agar (Difco) containing range of 2 fold dilutions of test compounds. These plates were incubated for 24 hrs at 35° C. and MIC results recorded. MIC is defined as minimum drug concentration that inhibits test organisms. For determining MIC of test compounds against Streptococcus pneumoniae 49619 (SPN 49619) and Streptococcus pyogenes 801 (SPY 801), Mueller Hinton agar containing 5% sheep blood was employed.

[2] = tested on: Vancomycin resistant enterococci 303 (VRE 303); experiment: as above; format: cell-based; details: Enterococcus, Mueller Hinton agar, 24 hrs at 35° C.
Experimental: as §1

[3] = tested on: Methicilin resistant Staphylococcus aureus 32 (MRSA 32); experiment: as above; format: cell-based; details: Mueller Hinton agar, 24 hrs at 35° C.
Experimental: as §1

[4] = tested on: methicillin resistant Staphylococcus aureus strain MRSA 32; experiment: Murine Assay Procedure (in vivo efficacy, MRSA 32 infection); details: swiss mice infected intraperitoneally with MRSA 32, oral gavage 1 h after infection, repeat dose 3 hrs later, percentage survival on Day 7
Experimental: Oxazolidinone new chemical entities (NCEs) were evaluated for their in vivo efficacy in a murine infection caused by multi-drug resistant, methicillin resistant Staphylococcus aureus strain, referred to as MRSA 32, a clinical isolate obtained from a hospitalized patient. The procedure used for the murine assay is as follows:
Four weeks old swiss mice of 18-22 gm body weight were infected with MRSA 32 strain suspended in 5% Hog gastric mucin. The infecting dose of bacteria was set at 1-2×10^8 CFU/animal. The infecting dose was administered in 0.5 ml volume injected into peritonial cavity of mice. The treatment with oxazolidinone NCEs was started one hour after infection by administering 100-200 μl of the suspensions of oxazolidinone compounds in 5% Tween 80 by oral gavage. A repeat dose was similarly administered 3 hrs later. Each oxazolidinone NCE was tested at 2-3 different dosages in the range of 2.5 mg/kg to 20 mg/kg. In each dose group 6 mice were included. As an infection control group 12 mice were infected with MRSA 32 strain without giving any treatment. For compounds affording protection of MRSA infected mice, ED50 dosages were calculated on the basis of percentage survival on Day 7 after infection.

[5] = tested on: Streptococcus pneumoniae 49619 (SPN 49619); experiment: Minimum Inhibitory Concentration (MIC) determination, agar with 5% sheep blood; format: cell-based; details: Mueller Hinton agar containing 5% sheep blood
Experimental: as §1

[6] = tested on: Streptococcus pyogenes 801 (SPY 801); experiment: as above; format: cell-based; details: Mueller Hinton agar containing 5% sheep blood
Experimental: as §1

SMILES	MIC [1]	MIC [2]	MIC [3]	MIC [5]	MIC [6]	ED50 [4]
CC(=O)NC[C@H]1CN(c2ccc(N3CCC4(CC3)C[S+]([O-])CCO4)c(F)c2)C(=O)O1 (stereo partly drawn) [Example 162, (S)—N-{3-[4-(1-oxa-4-sulfinyl-9-aza-spiro[5.5]undec-9-yl)-3-fluorophenyl]-2-oxo-oxazolidin-5-ylmethyl}-acetamide]			8 µg/mL (≈ 18.2 µM)	4 µg/mL (≈ 9.1 µM)	4 µg/mL (≈ 9.1 µM)	10 mg/kg
CC(=O)NC[C@H]1CN(c2ccc(N3CCC(F)(CO)CC3)c(F)c2)C(=O)O1 [Example 9, (S)—N-{3-[4-(4-Fluoro-4-hydroxymethylpiperidin-1-yl)-3-fluorophenyl]-2-oxo-oxazolidin-5-ylmethyl}-acetamide]	0.5 µg/mL (≈ 1.3 µM)	4 µg/mL (≈ 10.4 µM)	2 µg/mL (≈ 5.22 µM)	2 µg/mL (≈ 5.22 µM)	2 µg/mL (≈ 5.22 µM)	5 mg/kg
CC(=O)NC[C@H]1CN(c2ccc(N3CCC(F)(CC#N)CC3)c(F)c2)C(=O)O1 [Example 2, (S)—N-{3-[4-(4-Fluoro-4-cyanomethylpiperidin-1-yl)-3-fluorophenyl]-2-oxo-oxazolidin-5-ylmethyl}-acetamide]	0.5 µg/mL (≈ 1.27 µM)	1 µg/mL (≈ 2.55 µM)	1 µg/mL (≈ 2.55 µM)	0.5 µg/mL (≈ 1.27 µM)	1 µg/mL (≈ 2.55 µM)	2.5 mg/kg
COCC1(O)CCN(c2ccc(N3C[C@H](CNC(C)=O)OC3=O)cc2)CC1 [Example 177, (S)—N-{3-[4-(4-methoxymethyl-4-hydroxy-piperidin-1-yl)-phenyl]-2-oxo-oxazolidin-5-ylmethyl}-acetamide]	4 µg/mL (≈ 10.6 µM)	8 µg/mL (≈ 21.2 µM)	8 µg/mL (≈ 21.2 µM)			10 mg/kg

Continued by falling MIC [3], values first:

MIC [1]	MIC [2]	MIC [3]	MIC [5]	MIC [6]	SMILES	ED50 [4]
2 µg/mL (≈ 4.71 µM)	8 µg/mL (≈ 18.8 µM)	8 µg/mL (≈ 18.8 µM)	2 µg/mL (≈ 4.71 µM)	2 µg/mL (≈ 4.71 µM)	CC(=O)NC[C@H]1CN(c2ccc(N3CCC(F)(CNC(C)=O)CC3)c(F)c2)C(=O)O1 [Example 6, (S)—N-{3-[4-(4-Fluoro-4-(N-acetylamino)-methylpiperidin-1-yl)-3-fluorophenyl]-2-oxo-oxazolidin-5-ylmethyl}-acetamide]	10 mg/kg
2 µg/mL (≈ 4.75 µM)	8 µg/mL (≈ 19 µM)	4 µg/mL (≈ 9.49 µM)	4 µg/mL (≈ 9.49 µM)	4 µg/mL (≈ 9.49 µM)	CC(=O)NC[C@H]1CN(c2ccc(N3CCC4(CC3)COCCCO4)c(F)c2)C(=O)O1 [Example 164]	10 mg/kg
1 µg/mL	2 µg/mL	4 µg/mL	2 µg/mL	2 µg/mL	CC(=O)NC[C@H]1CN(c2ccc(N3CCC4(CC3)CC4C#N)c(F)c2)C(=O)O1 (mixture of isomers) [Example 97, (1RS,5S)—N-{3-[4-(1-cyano-6-aza-spiro[2.5]oct-6-yl)-3-fluorophenyl]-2-oxo-oxazolidin-5-ylmethyl}-acetamide]	5 mg/kg
2 µg/mL (≈ 5.08 µM)	4 µg/mL (≈ 10.2 µM)	4 µg/mL (≈ 10.2 µM)	2 µg/mL (≈ 5.08 µM)	2 µg/mL (≈ 5.08 µM)	CC(=O)NC[C@H]1CN(c2ccc(N3CCC4(CC3)COCO4)c(F)c2)C(=O)O1 [Example 125, (S)—N-{3-[4-(1,3-dioxa-8-aza-spiro[4.5]dec-8-yl)-3-fluorophenyl]-2-oxo-oxazolidin-5-ylmethyl}-acetamide]	10 mg/kg
1 µg/mL (≈ 2.36 µM)	2 µg/mL (≈ 4.71 µM)	2 µg/mL (≈ 4.71 µM)	1 µg/mL (≈ 2.36 µM)	1 µg/mL (≈ 2.36 µM)	CC(=O)NC[C@H]1CN(c2cc(F)c(N3CCC(O)(CN=[N+]=[N-])CC3)c(F)c2)C(=O)O1 [Example 186, (S)—N-{3-[4-(4-Azidomethyl-4-hydroxypiperidin-1-yl)-3,5-difluorophenyl]-2-oxo-oxazolidin-5-ylmethyl}-acetamide]	5 mg/kg
0.5 µg/mL (≈ 1.02 µM)	0.4 µg/mL (≈ 0.812 µM)	1 µg/mL (≈ 2.03 µM)	0.8 µg/mL (≈ 1.62 µM)	0.8 µg/mL (≈ 1.62 µM)	CC(=S)NC[C@H]1CN(c2ccc(N3CCC(C#N)(Nc4ccc(C#N)cc4)CC3)c(F)c2)C(=O)O1 [Example 87, (S)—N-{3-[4-(4-(1-(4-Cyanophenylamino))-4-cyanopiperidin-1-yl)-3-fluorophenyl]-2-oxo-oxazolidin-5-ylmethyl}-thioacetamide]	10 mg/kg
